Results published in paper PMC6522964 (Journal of Enzyme Inhibition and Medicinal Chemistry, 2019).
Read-outs that look alike come from different tables or passages of the source.

Assays:
tyrosinase [1] = target: T1, tyrosinase (Agaricus bisporus, UniProt C7FF04); assay type: biochemical, mushroom; conditions: increasing CuCl2 0-240 μM; diphenolase activity
T1 construct: purchased Sigma-Aldrich (St. Louis, MO, USA)
Description: To investigate whether the binding of copper ions with the inhibitor takes place at the active site of tyrosinase, the assay was carried out according to the method by Ismaya with some modifications.[17] Stock solutions of each KADs (10 mM) were prepared in DMSO. Then, 0.33 mM solutions were prepared in a cuvette containing phosphate buffer (10 mM, pH 7.4), and treated with different concentrations of CuCl2 (0, 60, 120, 180 or 240 µM). After 10 min of incubation period at room temperature, absorbance was scanned from 240 to 600 nm. Moreover, the relative activity of tyrosinase was determined by adding 0.1 ml various concentrations of CuCl2–KADs complexes from the previous step. The reaction system and the method were the same as the determination of diphenolase activity.

mushroom tyrosinase [2] = target: T2, mushroom tyrosinase (Agaricus bisporus, UniProt C7FF04); assay: Diphenolase activity of mushroom tyrosinase (L-DOPA as substrate), Lineweaver-Burk kinetics; assay type: biochemical; conditions: for Inhibition Type / Inhibition Mechanism: diphenolase; for Inhibition Type: Lineweaver-Burk plots; for Inhibition Mechanism: enzyme activity vs enzyme concentration plots; for Inhibition constant KIS: enzyme-substrate complex, plot of vertical intercepts vs inhibitor concentration; for Ki: free enzyme, plot of slopes vs inhibitor concentration, read-out: Inhibition constant KI
T2 construct: purchased Sigma-Aldrich (St. Louis, MO, USA)
Description: (§1) The reaction system (3 ml) contained 1 mM L-Tyr or 0.5 mM L-DOPA and enzyme in 50 mM Na2HPO4–NaH2PO4 buffer (pH 6.8) and different concentrations of KADs. The KADs were dissolved in DMSO and diluted to appropriate concentration, such that the final concentration of DMSO is maintained at 3.3%. […] The enzyme activity was evaluated by increasing the absorbance at 475 nm accompanying the oxidation of the substrates with a molar absorption coefficient of 3700 (M^−1 cm^−1). […] The reaction was carried out at 37 °C. A Thermo […] GO spectrophotometer was used for absorbance and kinetic measure.

tyrosinase [3] = target: T1, tyrosinase; assay: Intrinsic fluorescence quenching of tyrosinase (Stern-Volmer); assay type: binding, mushroom
Description: Fluorescence spectra were determined as previously reported by Zhu.[12] Cary Eclipse fluorescence spectrophotometer was used to record the fluorescence intensities at an excitation wavelength of 280 nm, and emission and excitation slit widths were 10 nm and 5 nm, respectively. At wavelengths of 300–450 nm, fluorescence emission spectra were recorded. In this assay, 10 μL of KADs of different concentrations were incorporated with 2 ml tyrosinase solution (0.2 mg/ml).
The fluorescence quenching data expressed as the fluorescence intensity against KADs concentration. Fluorescence quenching was calculated using the Stern–Volmer equation: F0/F = 1 + KSV[Q] Where F0 is the fluorescence intensities of tyrosinase, F is the fluorescence intensities after addition of the quencher, [Q] is the concentration of the quencher and KSV is the Stern–Volmer quenching constant. For the calculation of biomolecular quenching constants, the data were plotted as F0/F against [Q], with the biomolecular quenching constants calculated by linear regression.
There are two known fluorescence quenching mechanisms: static quenching is caused by complex formation while dynamic quenching is caused by collisional processes.[13] For the static quenching, the KSV value must be larger than 100 M^−1 and the apparent binding constant (KA) and the binding sites (n) were estimated by plots of log[(F0−F)/F] versus log[Q] using the following equation:[14] log ((F0 − F)/F) = logKA + nlog [Q]

mushroom tyrosinase [4] = target: T2, mushroom tyrosinase; conditions: L-Tyr substrate, read-out: IC50 Monophenolase; cited from earlier work
mushroom tyrosinase [5] = target: T2, mushroom tyrosinase; conditions: L-DOPA substrate, read-out: IC50 Diphenolase; cited from earlier work
mushroom tyrosinase [6] = target: T2, mushroom tyrosinase; assay: Monophenolase activity of mushroom tyrosinase (L-Tyr as substrate); assay type: biochemical; conditions: maximum concentration 20 μM
Description: as §1

[7] = DPPH free-radical scavenging assay
Description: (§2) The antioxidant capacities of compounds usually analysed through DPPH and ABTS^+ free-radical scavenging assays. The DPPH free-radical scavenging was conducted according to the procedure described by Chen.[18] Stock solution (0.2 mM DPPH) was prepared in 95% methyl alcohol and diluted to with OD value of 1.1 ± 0.05 at 517 nm for analysis. Briefly, 0.1 ml of compounds dissolved in DMSO at different concentrations (50, 200, 400 and 800 μg/ml) were added to DPPH with a methyl alcohol solution (0.2 mM, 2.9 ml). The mixture was shaken gently and absorbance was read at 517 nm every 5 min, a total of 30 min. The ABTS^+ free-radical scavenging activity assay was performed as described by Ai[9] with slight modification. 7 mM ABTS^+ and 2.45 mM K2S2O8 were dissolved in 10 mM sodium phosphate buffer and then placed at dark room for 16 h to obtain ABTS^+ stock solution. […] After 6 min of incubation period at room temperature, absorbance was read at 714 nm. The scavenging capacity of the antioxidant for the free-radical was calculated according to the following equation: Radical scavenging effect (%) = (1 − A1/A0) × 100% where A0 is the absorbance of blank control and A1 is the absorbance in the presence of sample. Data are represented from three independent experiments, and the mean values were calculated. […]

[8] = ABTS+ free-radical scavenging assay
Description: as §2

B16F10 cell = conditions: cited from earlier work

T2 sequence (C7FF04 1-392): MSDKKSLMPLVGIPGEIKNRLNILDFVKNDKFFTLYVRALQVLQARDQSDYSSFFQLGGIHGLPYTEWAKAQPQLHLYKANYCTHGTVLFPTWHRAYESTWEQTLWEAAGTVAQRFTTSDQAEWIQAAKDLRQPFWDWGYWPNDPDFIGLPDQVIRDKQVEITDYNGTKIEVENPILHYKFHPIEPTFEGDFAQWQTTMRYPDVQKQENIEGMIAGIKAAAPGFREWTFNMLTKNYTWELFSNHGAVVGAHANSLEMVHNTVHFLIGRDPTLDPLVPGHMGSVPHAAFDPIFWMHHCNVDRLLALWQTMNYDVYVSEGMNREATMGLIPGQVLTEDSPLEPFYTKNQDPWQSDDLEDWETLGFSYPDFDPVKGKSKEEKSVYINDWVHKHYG
T1 sequence (C7FF04 1-392): as above

Compound	Change of relative tyrosinase activity after treatment with Cu2+ (tyrosinase [1])	Inhibition Type (mushroom tyrosinase [2])	Inhibition Mechanism (mushroom tyrosinase [2])	Inhibition constant KIS (mushroom tyrosinase [2]) [µM]	Ki (mushroom tyrosinase [2]) [µM]	Kd (tyrosinase [3]) [µM]	KSV (Stern-Volmer quenching constant) (tyrosinase [3]; λex 280 nm) [M⁻¹]	Type of quenching (tyrosinase [3]; λex 280 nm)	n (binding sites) (tyrosinase [3]; λex 280 nm)	IC50 (mushroom tyrosinase [4]) [µM]	IC50 (mushroom tyrosinase [5]) [µM]	Lag time of monophenolase activity (mushroom tyrosinase [6]) [min]	Steady-state activity of monophenolase decreased to (mushroom tyrosinase [6]; remaining activity) [%]	KA (apparent binding constant) (tyrosinase [3]; λex 280 nm) [M⁻¹]	IC50 of DPPH [7] [µg/mL]	IC50 of ABTS+ [8] [µg/mL]	Inhibition of melanogenesis (B16F10 cell)
N[C@@H](Cc1ccc(O)c(O)c1)C(=O)O [DOPA, 3,4-dihydroxyphenylalanine, reference compound]	almost no changes	–	–	–	–	–	–	–	–	–	–	–	–	–	–	–	–
Nn1c(N/N=C/C=C/c2ccccc2)nnc1SCc1cc(=O)c(O)co1 [KAD1]	1.5 times	Mixed	Reversible	45.50	4.95	34.8	58400	Static	0.9394	21.6	8.33 ± 0.22	–	–	–	–	–	–
COc1ccccc1C=CC=NNc1nnc(SCc2cc(=O)c(O)co2)n1N [KAD2]	2 times	Mixed	Reversible	9.18	6.3	–	57000	Static	1.0394	20.5	7.5 ± 0.13	6.7	48.29	141000	227.80	126.63	effectively inhibit melanogenesis
